Values after ≈ are worked out from the molar mass of the structure shown. Where two headings read alike, the source gives them in different places.
Legend:
[1] = test system: MRSA COL and MRSA Strain No. 5; test: Potentiating effect of various gallates for antibacterial activity of oxacillin (MIC by broth microdilution method and FIC); type: cell-based, Staphylococcus aureus; conditions: for FIC value: combination with oxacillin
Method: According to the broth microdilution method defined by Japan Society of Chemotherapy, MIC was determined. CAMHA was prepared by adding 50 mg/l of Ca-ion, 25 mg/l of Mg-ion, and 2% of NaCl to MHB (Mueller-Hinton Broth), and it was used as a medium for use in the measurement of sensitivity. In 96-well microplates 100 μl of the medium for use in the measurement of sensitivity containing drugs was dispensed. The bacterial liquid was incubated at 37° C. overnight, diluted with saline and added to the plate so that the final concentration of the bacteria was 5×10^5 CFU/well. […] FIC (fractional inhibitory concentration) was calculated from the result and the potency of the effect of the combination use was evaluated.

MRSA and MSSA = test: Antibacterial activity of gallic acid, various gallates and multivalent phenol derivatives alone (agar plate dilution method, MIC); type: cell-based, Staphylococcus aureus; conditions: Staphylococcus aureus; for MIC: read-out: MIC alone
Method: According to the agar plate dilution method defined by Japan Society of Chemotherapy, MIC (Minimum inhibitory concentration) was determined. CAMHA was prepared by adding 50 mg/l of Ca-ion, 25 mg/l of Mg-ion, and 2% of NaCl to Mueller-Hinton II Agar (MHA), and it was used as a medium for use in the measurement of sensitivity. The bacterial liquid was incubated at 37° C. overnight and diluted to 10^6 CFU/ml with saline.
MIC for gallic acid, various gallates and multivalent phenol derivatives alone with MRSA and MSSA were determined as described in experiment 2.

SMILES	FIC value ([1]; MRSA COL)	FIC value ([1]; MRSA Strain No. 5)	MIC (MRSA and MSSA; COL)	MIC (MRSA and MSSA; MRSA #1)	MIC (MRSA and MSSA; MRSA #2)	MIC (MRSA and MSSA; MRSA #3)	MIC (MRSA and MSSA; MRSA #4)	MIC (MRSA and MSSA; MRSA #5)	MIC (MRSA and MSSA; MRSA #6)	MIC (MRSA and MSSA; MRSA #7)	MIC (MRSA and MSSA; MRSA #8)	MIC (MRSA and MSSA; MRSA #9)	MIC (MRSA and MSSA; MRSA #10)	MIC (MRSA and MSSA; MRSA #12)	MIC (MRSA and MSSA; MRSA #16)	MIC (MRSA and MSSA; MRSA #17)	MIC (MRSA and MSSA; MRSA #18)	MIC (MRSA and MSSA; MRSA #20)	MIC (MRSA and MSSA; MRSA #21)	MIC (MRSA and MSSA; MRSA #22)	also measured
CCCCOC(=O)c1cc(O)c(O)c(O)c1 [Butyl gallate, n-butyl gallate]	0.129	0.254	125 µg/mL (≈ 553 µM)	125 µg/mL (≈ 553 µM)	125 µg/mL (≈ 553 µM)	125 µg/mL (≈ 553 µM)	125 µg/mL (≈ 553 µM)	125 µg/mL (≈ 553 µM)	62.5 µg/mL (≈ 276 µM)	125 µg/mL (≈ 553 µM)	125 µg/mL (≈ 553 µM)	62.5 µg/mL (≈ 276 µM)	62.5 µg/mL (≈ 276 µM)	125 µg/mL (≈ 553 µM)	125 µg/mL (≈ 553 µM)	125 µg/mL (≈ 553 µM)	125 µg/mL (≈ 553 µM)	125 µg/mL (≈ 553 µM)	125 µg/mL (≈ 553 µM)	125 µg/mL (≈ 553 µM)	effect of the combination use with oxacillin by FIC values ([1]; COL Strain and Strain No. 5): most potent effect of the combination use; MIC (MRSA and MSSA; ATCC 6538 / MRSA / MSSA, ATCC6538): 125 µg/mL (≈ 553 µM); MIC (MRSA and MSSA; MRSA #24): 125 µg/mL (≈ 553 µM); MIC (MRSA and MSSA; MSSA #1003): 125 µg/mL (≈ 553 µM); MIC (MRSA and MSSA; MSSA #1010): 125 µg/mL (≈ 553 µM); MIC (MRSA and MSSA; MSSA #1020): 125 µg/mL (≈ 553 µM); MIC (MRSA and MSSA; MSSA #1023): 125 µg/mL (≈ 553 µM); MIC (MRSA and MSSA; MSSA #1029): 62.5 µg/mL (≈ 276 µM); MIC (MRSA and MSSA; MSSA #1032): 125 µg/mL (≈ 553 µM); MIC50 (MRSA and MSSA; compound alone, over all strains of Table 3-1, read-out: MIC50): 125 µg/mL (≈ 553 µM)
CCCCCCCCCCOC(=O)c1cc(O)c(O)c(O)c1 [Decyl gallate, n-decyl gallate]	0.258	0.508	15.7 µg/mL (≈ 50.6 µM)	15.7 µg/mL (≈ 50.6 µM)	15.7 µg/mL (≈ 50.6 µM)	15.7 µg/mL (≈ 50.6 µM)	15.7 µg/mL (≈ 50.6 µM)	15.7 µg/mL (≈ 50.6 µM)	15.7 µg/mL (≈ 50.6 µM)	15.7 µg/mL (≈ 50.6 µM)	15.7 µg/mL (≈ 50.6 µM)	15.7 µg/mL (≈ 50.6 µM)	15.7 µg/mL (≈ 50.6 µM)	15.7 µg/mL (≈ 50.6 µM)	15.7 µg/mL (≈ 50.6 µM)	15.7 µg/mL (≈ 50.6 µM)	15.7 µg/mL (≈ 50.6 µM)	15.7 µg/mL (≈ 50.6 µM)	31.3 µg/mL (≈ 101 µM)	31.3 µg/mL (≈ 101 µM)	antibacterial activity when used alone ([1]; COL Strain and Strain No. 5): most potent; MIC50 (MRSA and MSSA): 15.7 µg/mL (≈ 50.6 µM); MIC (MRSA and MSSA; ATCC 6538 / MRSA / MSSA): 15.7 µg/mL (≈ 50.6 µM); MIC (MRSA and MSSA; MRSA #24): 31.3 µg/mL (≈ 101 µM); MIC (MRSA and MSSA; MRSA and MSSR): 15.7 µg/mL (≈ 50.6 µM); MIC (MRSA and MSSA; MSSA #1003): 15.7 µg/mL (≈ 50.6 µM); MIC (MRSA and MSSA; MSSA #1010): 15.7 µg/mL (≈ 50.6 µM); MIC (MRSA and MSSA; MSSA #1020): 15.7 µg/mL (≈ 50.6 µM); MIC (MRSA and MSSA; MSSA #1023): 15.7 µg/mL (≈ 50.6 µM); MIC (MRSA and MSSA; MSSA #1029): 15.7 µg/mL (≈ 50.6 µM); MIC (MRSA and MSSA; MSSA #1032): 15.7 µg/mL (≈ 50.6 µM)
CCOC(=O)c1cc(O)c(O)c(O)c1 [Ethyl gallate, ethyl gallate]	0.125	0.156	125 µg/mL (≈ 631 µM)	125 µg/mL (≈ 631 µM)	62.5 µg/mL (≈ 315 µM)	125 µg/mL (≈ 631 µM)	62.5 µg/mL (≈ 315 µM)	125 µg/mL (≈ 631 µM)	62.5 µg/mL (≈ 315 µM)	125 µg/mL (≈ 631 µM)	125 µg/mL (≈ 631 µM)	62.5 µg/mL (≈ 315 µM)	62.5 µg/mL (≈ 315 µM)	125 µg/mL (≈ 631 µM)	125 µg/mL (≈ 631 µM)	62.5 µg/mL (≈ 315 µM)	62.5 µg/mL (≈ 315 µM)	125 µg/mL (≈ 631 µM)	125 µg/mL (≈ 631 µM)	125 µg/mL (≈ 631 µM)	MIC50 (MRSA and MSSA): 125 µg/mL (≈ 631 µM); MIC (MRSA and MSSA; ATCC 6538 / MRSA / MSSA): 125 µg/mL (≈ 631 µM); MIC (MRSA and MSSA; MRSA #24): 125 µg/mL (≈ 631 µM); MIC (MRSA and MSSA; MSSA #1003): 125 µg/mL (≈ 631 µM); MIC (MRSA and MSSA; MSSA #1010): 125 µg/mL (≈ 631 µM); MIC (MRSA and MSSA; MSSA #1020): 125 µg/mL (≈ 631 µM); MIC (MRSA and MSSA; MSSA #1023): 62.5 µg/mL (≈ 315 µM); MIC (MRSA and MSSA; MSSA #1029): 62.5 µg/mL (≈ 315 µM); MIC (MRSA and MSSA; MSSA #1032): 125 µg/mL (≈ 631 µM)
CCCCCCCOC(=O)c1cc(O)c(O)c(O)c1 [Heptyl gallate, n-heptyl gallate]	0.563	0.75	31.3 µg/mL (≈ 117 µM)	31.3 µg/mL (≈ 117 µM)	31.3 µg/mL (≈ 117 µM)	31.3 µg/mL (≈ 117 µM)	31.3 µg/mL (≈ 117 µM)	31.3 µg/mL (≈ 117 µM)	31.3 µg/mL (≈ 117 µM)	31.3 µg/mL (≈ 117 µM)	31.3 µg/mL (≈ 117 µM)	31.3 µg/mL (≈ 117 µM)	31.3 µg/mL (≈ 117 µM)	31.3 µg/mL (≈ 117 µM)	31.3 µg/mL (≈ 117 µM)	31.3 µg/mL (≈ 117 µM)	31.3 µg/mL (≈ 117 µM)	31.3 µg/mL (≈ 117 µM)	31.3 µg/mL (≈ 117 µM)	31.3 µg/mL (≈ 117 µM)	MIC50 (MRSA and MSSA): 31.3 µg/mL (≈ 117 µM); MIC (MRSA and MSSA; ATCC 6538 / MRSA / MSSA): 31.3 µg/mL (≈ 117 µM); MIC (MRSA and MSSA; MRSA #24): 31.3 µg/mL (≈ 117 µM); MIC (MRSA and MSSA; MSSA #1003): 31.3 µg/mL (≈ 117 µM); MIC (MRSA and MSSA; MSSA #1010): 31.3 µg/mL (≈ 117 µM); MIC (MRSA and MSSA; MSSA #1020): 31.3 µg/mL (≈ 117 µM); MIC (MRSA and MSSA; MSSA #1023): 31.3 µg/mL (≈ 117 µM); MIC (MRSA and MSSA; MSSA #1029): 31.3 µg/mL (≈ 117 µM); MIC (MRSA and MSSA; MSSA #1032): 31.3 µg/mL (≈ 117 µM)

Reference: patent US20060235076A1, “Medicinal composition for treating infection with drug-resistant staphylococcus aureus” (priority 2003, published 2006)
